Data set [1] deals with Staphylococcus aureus. Description: Antibacterial activity against Methicillin-resistant Staphylococcus aureus 936 assessed as bacterial growth inhibition measured for 18 hrs by CLSI-protocol based Mueller-Hinton Broth micro-dilution assay. The data set is classed as functional.
The test system of data set [2] is Bacillus subtilis. Description: Antibacterial activity against Bacillus subtilis ATCC 23857 assessed as reduction in bacterial growth measured after 18 to 24 hrs by CLSI protocol-based Mueller-Hinton broth dilution method. In kind it is functional. Particulars: time 18-24 hrs. Background: Broth dilution looks for growth in wells or tubes with falling amounts of substance.

Data set [3] has as its system Pseudomonas aeruginosa. As to the kind of experiment: Antibacterial activity against multi-drug resistant Pseudomonas aeruginosa clinical isolate 119 assessed as reduction in bacterial growth measured after 18 to 24 hrs by CLSI protocol-based Mueller-Hinton broth dilution method. In kind it is functional. Particulars: time 18-24 hrs.
In data set [4] the test system is Staphylococcus aureus. Description: Antibacterial activity against Staphylococcus aureus ATCC 25923 assessed as reduction in bacterial growth measured after 18 to 24 hrs by CLSI protocol-based Mueller-Hinton broth dilution method. The data set is classed as functional. Particulars: time 18-24 hrs.
Data set [5] has as its system Escherichia coli. Description: Antibacterial activity against multi-drug resistant Escherichia coli clinical isolate 850 assessed as reduction in bacterial growth measured after 18 to 24 hrs by CLSI protocol-based Mueller-Hinton broth dilution method. In kind it is functional. Particulars: time 18-24 hrs.
The test system of a further data set is Klebsiella pneumoniae. Description: Antibacterial activity against Klebsiella pneumoniae ATCC 700603 assessed as reduction in bacterial growth measured after 18 to 24 hrs by CLSI protocol-based Mueller-Hinton broth dilution method. In kind it is functional. Particulars: time 18-24 hrs.
The next data set concerns Acinetobacter baumannii. As to the kind of experiment: Antibacterial activity against multi-drug resistant Acinetobacter baumannii clinical isolate 9840 assessed as reduction in bacterial growth measured after 18 to 24 hrs by CLSI protocol-based Mueller-Hinton broth dilution method. The data set is classed as functional. The following applies: time 18-24 hrs.
For data set [6], the system named is Staphylococcus aureus. As to the kind of experiment: Antibacterial activity against Staphylococcus aureus ATCC 25923 assessed as bacterial growth inhibition measured for 18 hrs by CLSI-protocol based Mueller-Hinton Broth micro-dilution assay. In kind it is functional.
The test system of data set [7] is Pseudomonas aeruginosa. As to the kind of experiment: Antibacterial activity against Pseudomonas aeruginosa ATCC 27853 assessed as reduction in bacterial growth measured after 18 hrs by CLSI protocol-based Mueller-Hinton broth dilution method. The data set is classed as functional.
The subject of data set [8] is Staphylococcus aureus. Description: Antibacterial activity against Staphylococcus aureus ATCC 25923 assessed as reduction in bacterial growth measured after 18 hrs by CLSI protocol-based Mueller-Hinton broth dilution method. In kind it is functional.
Data set [9] has as its system Bacillus subtilis. Description: Antibacterial activity against Bacillus subtilis ATCC 23857 assessed as reduction in bacterial growth measured after 18 hrs by CLSI protocol-based Mueller-Hinton broth dilution method. In kind it is functional.
Data set [10] concerns Escherichia coli. Description: Antibacterial activity against Escherichia coli ATCC 25922 assessed as reduction in bacterial growth measured after 18 hrs by CLSI protocol-based Mueller-Hinton broth dilution method. In kind it is functional.
For a further data set, the system named is Erythrocyte. As to the kind of experiment: Hemolytic activity in human red blood cells. In kind it is toxicity, cell-based. Particulars: erythrocyte.

As usually defined, the MIC is the lowest concentration that inhibits growth of the organism.

Converted amounts (≈) assume the structure as drawn. Bridge positions count the residues as written; N and C are the ends. Square brackets hold non-standard residues; d marks the D form. Triazole bridges read from a SMILES are 1,4-linked. Peptide text beside a SMILES is read from it. I, II: the chains in the order shown. Lys(N3) = [N-]=[N+]=NCCCC[C@H](N)C(=O)O; Pra = C#CC[C@H](N)C(=O)O

As to `CC[C@H](C)[C@H](NC(=O)[C@H](CCCNC(=N)N)NC(=O)[C@@H](CCCCN)NC(=O)[C@H](CC(C)C)NC(=O)[C@H](CC(C)C)NC(=O)CNC(=O)[C@H](CCCCn1cc(CC(NC(=O)[C@H](CC(C)C)NC(=O)[C@H](CC(C)C)NC(=O)[C@@H](NC(=O)[C@@H](CCCCN)NC(=O)[C@@H](NC(=O)[C@H](CCCNC(=N)N)NC(=O)[C@@H](CCCCN)NC(=O)[C@H](CC(C)C)NC(=O)[C@H](CC(C)C)NC(=O)CNC(C)=O)[C@@H](C)CC)[C@@H](C)O)C(N)=O)nn1)NC(C)=O)C(=O)N[C@H](CCCCN)C(=O)N[C@H](C(=O)N[C@@H](CC(C)C)C(=O)N[C@@H](CC(C)C)C(N)=O)[C@@H](C)O` (stereo partly specified), the MIC with Staphylococcus aureus [1] turned out to be 64 µM (≈ 169 µg/mL); with Bacillus subtilis [2], 2 µM (≈ 5.28 µg/mL); with Pseudomonas aeruginosa [3], 16 µM (≈ 42.2 µg/mL); in the data set on Staphylococcus aureus [4], 128 µM (≈ 338 µg/mL); in the data set with Escherichia coli [5] it was 32 µM (≈ 84.5 µg/mL); in the data set with Klebsiella pneumoniae, 32 µM (≈ 84.5 µg/mL). Moreover, the values for the MIC in the data set with Acinetobacter baumannii and in the data set with Staphylococcus aureus [6] were 4 µM (≈ 10.6 µg/mL) and 64 µM (≈ 169 µg/mL), respectively.

In the case of `CC[C@H](C)[C@H](NC(=O)[C@H](CCCNC(=N)N)NC(=O)[C@@H](CCCCN)NC(=O)[C@H](CC(C)C)NC(=O)[C@H](CC(C)C)NC(=O)CNC(C)=O)C(=O)N[C@H](CCCCN)C(=O)N[C@H](C(=O)N[C@@H](CC(C)C)C(=O)N[C@@H](CC(C)C)C(=O)NC(Cc1cn(CCCC[C@H](NC(=O)[C@H](CC(C)C)NC(=O)[C@H](CC(C)C)NC(=O)[C@@H](NC(=O)[C@@H](CCCCN)NC(=O)[C@@H](NC(=O)[C@H](CCCNC(=N)N)NC(=O)[C@@H](CCCCN)NC(=O)[C@H](CC(C)C)NC(=O)[C@H](CC(C)C)NC(=O)CNC(C)=O)[C@@H](C)CC)[C@@H](C)O)C(N)=O)nn1)C(N)=O)[C@@H](C)O` (stereo partly specified), the MIC in the data set on Staphylococcus aureus [1] amounted to 128 µM (≈ 338 µg/mL); in the data set on Bacillus subtilis [2], 4 µM (≈ 10.6 µg/mL); with Pseudomonas aeruginosa [3] it was 16 µM (≈ 42.2 µg/mL); with Staphylococcus aureus [4] it was 128 µM (≈ 338 µg/mL); in the data set on Escherichia coli [5], 16 µM (≈ 42.2 µg/mL); in the data set with Klebsiella pneumoniae it was 64 µM (≈ 169 µg/mL). For the same molecule, the MIC with Acinetobacter baumannii worked out at 4 µM (≈ 10.6 µg/mL); in the data set with Staphylococcus aureus [6], 128 µM (≈ 338 µg/mL).

For `CC[C@H](C)[C@H](NC(=O)[C@H](CCCNC(=N)N)NC(=O)[C@H](CCCCN)NC(=O)[C@H](CC(C)C)NC(=O)[C@H](CC(C)C)NC(=O)CNC(=O)[C@H](Cc1cn(CCCC[C@H](NC(C)=O)C(=O)N[C@@H](CCCNC(=N)N)C(=O)N[C@@H](CCCNC(=N)N)C(=O)N[C@@H](Cc2c[nH]c3ccccc23)C(=O)N[C@@H](Cc2c[nH]c3ccccc23)C(=O)N[C@@H](CCCNC(=N)N)C(=O)N[C@@H](Cc2ccccc2)C(N)=O)nn1)NC(C)=O)C(=O)N[C@@H](CCCCN)C(=O)N[C@H](C(=O)N[C@@H](CC(C)C)C(=O)N[C@@H](CC(C)C)C(N)=O)[C@@H](C)O` (I: Ac-[Pra]GLLKRIKTLL-NH2 / II: Ac-[Lys(N3)]RRWWRF-NH2; triazole I:1-II:1), the MIC in the data set with Pseudomonas aeruginosa [7] is 16 µM (≈ 39.9 µg/mL); in the data set on Staphylococcus aureus [8], 4 µM (≈ 9.97 µg/mL); with Bacillus subtilis [9], 4 µM (≈ 9.97 µg/mL); in the data set with Escherichia coli [10], 8 µM (≈ 19.9 µg/mL). Also, the HC10 in the data set with Erythrocyte is more than 150 µM.

For the origin of these results see ChEMBL document CHEMBL5608163, “Structure modification of anoplin for fighting resistant bacteria” (Eur J Med Chem, 2024).
